Strand notation (5' to 3'): a small letter for the sugar, then the base; units joined by * are phosphorothioate-linked, units joined directly phosphodiester-linked; [ ] holds rarer units or linkages, { } end groups; capitals alone tell only the bases. k = constrained ethyl (cEt); [5mC] = 5-methylcytosine; d = 2'-deoxy (DNA)
Tested on: Yap1 mRNA
Test: Antisense inhibition of human Yap1 in A-431 cells by cEt gapmers, single dose (Example 1, RTS4814)
Assay type: cell-based
Procedure: Modified oligonucleotides were designed to target a Yap1 nucleic acid and were tested for their effect on Yap1 mRNA level in vitro. The modified oligonucleotides were tested in a series of experiments that had similar culture conditions. Cultured A-431 cells at a density of 5,000 cells per well were treated using free uptake with 2,000 nM of modified oligonucleotide. After a treatment period of approximately 48 hours, RNA was isolated from the cells and Yap1 mRNA levels were measured by quantitative real-time RTPCR. Human primer probe set RTS4814 (forward sequence […], designated herein as SEQ ID NO.: 11; reverse sequence […], designated herein as SEQ ID NO.: 12; probe sequence […], designated herein as SEQ ID NO.: 13) was used to measure mRNA levels. Yap1 mRNA levels were normalized to total RNA content, as measured by RIBOGREEN®. Results are presented in the tables below as percent control of the amount of Yap1 mRNA relative to untreated control cells (% UTC). The modified oligonucleotides with percent control values marked with an asterisk (*) target the amplicon region of the primer probe set. Additional assays may be used to measure the potency and efficacy of the modified oligonucleotides targeting the amplicon region.
The newly designed modified oligonucleotides in the Tables below were designed as 3-10-3 cEt gapmers. The gapmers are 16 nucleosides in length, wherein the central gap segment comprises of ten 2′-deoxynucleosides and is flanked by wing segments on the 5′ direction and the 3′ direction comprising three nucleosides each. Each nucleoside in the 5′ wing segment and each nucleoside in the 3′ wing segment has a cEt sugar modification. The internucleoside linkages throughout each gapmer are phosphorothioate (P═S) linkages. All cytosine residues throughout each gapmer are 5-methylcytosines.
“Start site” indicates the 5′-most nucleoside to which the gapmer is targeted in the human gene sequence. “Stop site” indicates the 3′-most nucleoside to which the gapmer is targeted human gene sequence. […] Activity of the modified oligonucleotide may be defined in a different experiment.

[1] = Table 1, A-431 cells, free uptake, 2,000 nM, approximately 48 hours, RTS4814, Yap1 mRNA relative to untreated control cells
[2] = A-431 cells, 5,000 cells per well, free uptake, 2,000 nM modified oligonucleotide, approx. 48 hours, RTS4814, normalized to RIBOGREEN, Table 3
[3] = Table 2, A-431 cells, free uptake, 2,000 nM, approximately 48 hours, RTS4814, Yap1 mRNA relative to untreated control cells

Substance | YAP1 (% UTC) [1] | other results
715508 (antisense k[5mC]*kT*kG*dT*dG*d[5mC]*dT*dG*dG*dG*dA*dT*dT*kG*kA*kT) [Compound 715508] | 24 % UTC | –
715589 (k[5mC]*k[5mC]*kA*dG*d[5mC]*dA*dG*d[5mC]*dT*dA*dA*d[5mC]*dA*kG*k[5mC]*kT; antisense) [Compound 715589] | 107 % UTC | –
715630 (antisense kA*kA*kG*dA*dG*d[5mC]*d[5mC]*dT*dA*d[5mC]*d[5mC]*dT*dG*kA*k[5mC]*kA) [Compound 715630] | – | YAP1 (% UTC) [2]: 94 % UTC
715571 (kA*kA*kA*dA*dT*d[5mC]*d[5mC]*dT*dG*d[5mC]*d[5mC]*dA*dA*k[5mC]*kA*kT; antisense) [Compound 715571] | 127 % UTC | –
715401 (kG*kG*kT*d[5mC]*dT*d[5mC]*d[5mC]*dG*dA*dG*dT*d[5mC]*d[5mC]*k[5mC]*k[5mC]*kG; antisense) [Compound 715401] | – | YAP1 (% UTC) [3]: 84 % UTC
715403 (kG*kA*kA*dG*dG*dA*dG*dT*d[5mC]*dG*dG*dG*d[5mC]*kA*kG*k[5mC]; antisense) [Compound 715403] | 72 % UTC | –
715544 (k[5mC]*kA*kA*d[5mC]*dT*dA*d[5mC]*dT*dT*dG*dA*dA*dG*kA*kA*k[5mC]; antisense) [Compound 715544] | 128 % UTC | –
715404 (kA*kA*kG*dA*dA*dG*dG*dA*dG*dT*d[5mC]*dG*dG*kG*k[5mC]*kA; antisense) [Compound 715404] | – | YAP1 (% UTC) [3]: 64 % UTC
715448 (antisense k[5mC]*kT*k[5mC]*dA*dA*dT*dT*d[5mC]*d[5mC]*dT*dG*dA*dG*kA*k[5mC]*kA) [Compound 715448] | 97 % UTC | –
715577 (kG*k[5mC]*kA*dT*dT*d[5mC]*dA*d[5mC]*dA*dG*dA*dG*dT*kT*kA*kA; antisense) [Compound 715577] | 21 % UTC | –
715424 (kT*kG*k[5mC]*d[5mC]*dA*dT*dG*dT*dT*dG*dT*dT*dG*kT*k[5mC]*kT; antisense) [Compound 715424] | 58 % UTC | –
715458 (antisense k[5mC]*kG*kA*dG*dA*dG*dT*dG*dA*dT*dA*dG*dG*kT*kG*k[5mC]) [Compound 715458] | – | YAP1 (% UTC) [3]: 58 % UTC
715426 (kA*kT*k[5mC]*d[5mC]*dA*dT*d[5mC]*dA*dG*dG*dA*dA*dG*kA*kG*kG; antisense) [Compound 715426] | – | YAP1 (% UTC) [2]: 80 % UTC
715541 (k[5mC]*kT*kT*dG*dA*dA*dG*dA*dA*d[5mC]*dT*dA*dT*kT*kT*k[5mC]; antisense) [Compound 715541] | 105 % UTC | –
715467 (antisense k[5mC]*kA*kT*d[5mC]*dT*d[5mC]*d[5mC]*dT*dT*d[5mC]*d[5mC]*dA*dG*kT*kG*kT) [Compound 715467] | – | YAP1 (% UTC) [3]: 77 % UTC
